Laboratory results published in US4049495A, “Physiologically active substances and fermentative process for producing the same” (Sankyo Company Limited, priority 1974, dated 1977).
≈ marks a conversion by molar mass, not a printed value.

Columns and labels:
cholesterol biosynthesis = assay: inhibition of cholesterol biosynthesis in vitro (rat liver slice, radioactive acetic acid); assay type: cell-based; conditions: 1 h, 37° C., 60 minutes, read-out: concentration exhibiting about 50% inhibition of cholesterol biosynthesis
Protocol: I. The activity in vitro on inhibition of cholesterol biosynthesis of the substances ML-236 may be assayed by the following method. Slice of rat liver and radioactive acetic acid are brought to interaction at 37° C. for 60 minutes, the radioactive cholesterol thus biosynthesized is saponified and separated as precipitates with digitonin and then its radioactivity is measured to determine the produced cholesterol amount. Separately, the same procedures as above are employed except that ML-236 is added at the beginning of the reaction, thereby the biosynthesized cholesterol amount being determined. Thus, an effect of ML-236 can be quantitively determined. (See Bricker et al.: The Journal of Biological Chemistry, 247, 4914, 1972).

[1] = system: cholesterol levels in blood and liver; assay: lowering of cholesterol in blood and liver of Triton WR 1339-treated rats; assay type: in vivo; conditions: 20 mg./kg. intraperitoneal, with Triton WR 1339 200 mg./kg. i.v., 24 hours, vs Triton alone
Protocol: 1. One of two groups of rats having an average weight of about 200 g., each group consisting of 5 animals, was individually given by intraveneous injection with 200 mg./kg. of Triton WR 1339 (trade name; available from Ruger Chemical Co., Ltd., U.S.A.; having an activity of increasing cholesterol level in blood) simultaneously with intraperitoneal administration of 20 mg./kg. of ML-236B. After 24 hours from administration, rats were sacrificed by bleeding, blood and liver were collected and their cholesterol and neutral lipid levels were determined by a conventional method.

[2] = system: cholesterol and neutral lipid levels in blood serum; assay: lowering of cholesterol and neutral lipid in blood serum of rats, oral ML-236B in physiological saline; assay type: in vivo; conditions: 80 mg./kg. powdery in physiological saline solution, vs saline
Protocol: Moreover, one of two other groups of rats, each group consisting of 5 animals, were orally given 80 mg./kg. of powdery ML-236B in the form of a physiological saline solution. After 3 hours from administration, cholesterol and neutral lipid levels in blood serum were determined in the same manner as above.

[3] = solubility in organic solvents; assay type: physicochemical
[4] = system: cholesterol and neutral lipid levels in blood serum; assay: lowering of cholesterol and neutral lipid in blood serum of rats, oral ML-236A in gum arabic; assay type: in vivo; conditions: 5 mg./kg. in gum arabic, vs gum arabic alone
Protocol: 2. Two of four groups of rats, each group consisting of 5 animals, were orally given one dose of 5 mg./kg. of ML-236A suspended in gum arabic. After 3 hours and 18 hours from administration, animals were sacrificed by bleeding and blood was collected. Cholesterol and neutral lipid levels in blood serum were determined by a conventional method.

[5] = in methanol, ethanol, acetone, ethyl acetate, chloroform and benzene
[6] = in n-hexane and petroleum ether

| SMILES | IC50 (cholesterol biosynthesis) | lowering of cholesterol level in blood [1] | lowering of cholesterol level in liver [1] | lowering of cholesterol level in blood serum after 3 hours [2] | lowering of neutral lipid level in blood serum after 3 hours [2] | Solubility [3, 5] | Solubility [3, 6] | lowering of cholesterol level in blood serum after 3 hours ([4]; 3 hours) | lowering of neutral lipid level in blood serum after 3 hours ([4]; 3 hours) | lowering of cholesterol level in blood serum after 18 hours ([4]; 18 hours) | lowering of neutral lipid level in blood serum after 18 hours ([4]; 18 hours) |
| --- | --- | --- | --- | --- | --- | --- | --- | --- | --- | --- | --- |
| CCC(C)C(=O)OC1CCC=C2C=CC(C)C(CCC3CC(O)CC(=O)O3)C21 (centres unmarked) [ML-236B] | ~0.01 µg/mL (≈ 0.0256 µM) | 14.2% | 10.1% | 20.0% | 44.2% | Soluble | Insoluble |  |  |  |  |
| CC1C=CC2=CCCCC2C1CCC1CC(O)CC(=O)O1 (centres unmarked) [ML-236C] | ~0.08 µg/mL (≈ 0.275 µM) |  |  |  |  | Soluble | Insoluble |  |  |  |  |
| CC1C=CC2=CCCC(O)C2C1CCC1CC(O)CC(=O)O1 (centres unmarked) [ML-236A] | ~0.04 µg/mL (≈ 0.131 µM) |  |  |  |  | Soluble | Insoluble | 13.5% | 49.5% | 13.5% | not observed |
